For 6 compounds, EC50 and Emax results are on record in patent publication US20130072427A1, “GPR 119 MODULATORS” (Pfizer Inc., priority 2009, published 2013).

pEC50: −log10 of the molar value. “And” between values parts separate entries of the source, which are not always exact repeats. Equal entries are not always repeated. Where two headings read alike, the source gives them in different places.

This assay deals with T1, human GPR119 (Homo sapiens, UniProt Q8TDV5).
T1 construct: host or cells: HEK293-CRE beta-lactamase cells
T1 sequence (Q8TDV5 1-335): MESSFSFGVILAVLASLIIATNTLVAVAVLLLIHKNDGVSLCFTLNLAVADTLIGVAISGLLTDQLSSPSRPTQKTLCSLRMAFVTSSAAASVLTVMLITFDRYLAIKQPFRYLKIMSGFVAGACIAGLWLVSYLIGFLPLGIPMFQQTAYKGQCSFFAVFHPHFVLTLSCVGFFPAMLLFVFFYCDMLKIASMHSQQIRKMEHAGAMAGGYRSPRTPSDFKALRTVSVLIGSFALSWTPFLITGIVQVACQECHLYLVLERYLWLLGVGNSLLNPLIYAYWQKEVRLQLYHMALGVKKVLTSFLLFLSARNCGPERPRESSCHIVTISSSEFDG
The assay can be described thus: cAMP functional assay (HTRF, hGPR119 HEK-CRE beta-lactamase cells). Format: cell-based. To be noted: for pEC50: hGPR119 HEK-CRE beta-lactamase cells, HTRF cAMP, 30 minutes, read-out: Human cAMP Functional EC50. Here is the method:
GPR119 agonist activity was also determined with a cell-based assay utilizing an HTRF (Homogeneous Time-Resolved Fluorescence) cAMP detection kit (cAMP dynamic 2 Assay Kit; Cis Bio cat #62AM4PEC) that measures cAMP levels in the cell. The method is a competitive immunoassay between native cAMP produced by the cells and the cAMP labeled with the dye d2. The tracer binding is visualized by a Mab anti-cAMP labeled with Cryptate. The specific signal (i.e. energy transfer) is inversely proportional to the concentration of cAMP in either standard or sample.
Specifically, hGPR119HEK-CRE beta-lactamase cells (Invitrogen 2.5×10^7/ml; the same cell line used in the beta-lactamase assay described above) are removed from cryopreservation and diluted in growth medium (Dulbecco's modified Eagle medium high glucose (DMEM; Gibco Cat #11995-065), 1% charcoal dextran treated fetal bovine serum (CD serum; HyClone Cat #SH30068.03), 1×MEM Nonessential amino acids (Gibco Cat #15630-080) and 25 mM HEPES pH 7.0 (Gibco Cat #15630-080)). The cell concentration was adjusted to 1.5×10^5 cells/ml and 30 mls of this suspension was added to a T-175 flask and incubated at 37 degrees Celsius in a humidified environment in 5% carbon dioxide. After 16 hours (overnight), the cells were removed from the T-175 flask (by rapping the side of the flask), centrifuged at 800×g and then re-suspended in assay medium (1×HBSS+CaCl2+MgCl2 (Gibco Cat #14025-092) and 25 mM HEPES pH 7.0 (Gibco Cat #15630-080)). The cell concentration was adjusted to 6.25×10^5 cells/ml with assay medium and 8 μl of this cell suspension (5000 cells) was added to each well of a white Greiner 384-well, low-volume assay plate (VWR cat #82051-458).
Varying concentrations of each compound to be tested were diluted in assay buffer containing 3-isobutyl-1-methylxanthin (IBMX; Sigma cat #15879) and added to the assay plate wells in a volume of 2 microL (final IBMX concentration was 400 microM and final DMSO concentration was 0.58%). Following 30 minutes incubation at room temperature, 5 microL of labeled d2 cAMP and 5 microL of anti-cAMP antibody (both diluted 1:20 in cell lysis buffer; as described in the manufacturers assay protocol) were added to each well of the assay plate. The plates were then incubated at room temperature and after 60 minutes, changes in the HTRF signal were read with an Envision 2104 multilabel plate reader using excitation of 330 nm and emissions of 615 and 665 nm. Raw data were converted to nM cAMP by interpolation from a cAMP standard curve (as described in the manufacturer's assay protocol) and EC50 determinations were made from an agonist-response curves analyzed with a curve fitting program using a 4-paramter logistic dose response equation.
On the technique in general: TR-FRET usually uses a lanthanide donor and a delayed reading to cut background.

Where [1] appears, read: percent of maximal activity relative to standard GPR119 agonist (WO2005121121) at 10 μM, one line per run, read-out: Intrinsic Activity* (%) (cAMP).

On to `Cc1c(O[C@H]2CCN(C(=O)OC3(C)CC3)C[C@H]2F)ncnc1N1Cc2cnn(C)c2C1` (racemic) [Example 7, 1-Methylcyclopropyyl (3,4-cis)-3-fluoro-4-{[5-methyl-6-(1-methyl-4,6-dihydropyrrolo[3,4-c]pyrazol-5(1H)-yl)pyrimidin-4-yl]oxy}piperidine-1-carboxylate (racemic)], for which, where the note is “one line per run”, the negative-log EC50 (pEC50) was 7.77 and 7.85 and 7.92. Further, the Emax under setting [1] amounted to 80%.
On to `CC(C)OC(=O)N1CCC(Oc2ncnc(N3Cc4cnn(C)c4C3)c2C#N)CC1` [Example 3, Isopropyyl 4-{[5-cyano-6-(1-methyl-4,6-dihydropyrrolo[3,4-c]pyrazol-5(1H)-yl)pyrimidin-4-yl]oxy}piperidine-1-carboxylate], for which the EC50 (**the curve was extrapolated to 100% to calculate an EC50, read-out: Human cAMP Functional EC50 (nM), curve extrapolated to 100%) was 6250 nM. Also, the Emax (**the curve was extrapolated to 100% to calculate an EC50, read-out: Intrinsic Activity* (%) (cAMP), curve extrapolated to 100%) is 100% and the Emax under setting [1] came out at 51%.
In the case of `Cc1c(O[C@H]2[C@@H]3COC[C@H]2CN(C(=O)OC(C)(C)C)C3)ncnc1N1Cc2cnn(C)c2C1` [Example 9, tert-Butyl (9-anti)-9-{[5-methyl-6-(1-methyl-4,6-dihydropyrrolo[3,4-c]pyrazol-5(1H)-yl)pyrimidin-4-yl]oxy}-3-oxa-7-azabicyclo[3.3.1]nonane-7-carboxylate], for the setting “one line per run”, the pEC50 was 7.19 and 7.24 and 7.11. In addition, under setting [1], the Emax worked out at 72%.
On to `Cc1c(O[C@H]2CCN(C(=O)OC(C)(C)C)C[C@H]2F)ncnc1N1Cc2cnn(C)c2C1` (racemic) [Example 6, tert-Butyl (3,4-cis)-3-fluoro-4-{[5-methyl-6-(1-methyl-4,6-dihydropyrrolo[3,4-c]pyrazol-5(1H)-yl)pyrimidin-4-yl]oxy}piperidine-1-carboxylate (racemic)], for which the negative logarithm of the EC50 (pEC50) (one line per run) was 7.41 and 7.46 and 6.88 and 6.54. Besides, under setting [1], the Emax was determined as 60%.
Consider `Cc1c(O[C@H]2CCN(C(=O)OC(C)(C)C)C[C@@H]2F)ncnc1N1Cc2cnn(C)c2C1` (racemic) [Example 8, tert-Butyl (3,4-trans)-3-fluoro-4-{[5-methyl-6-(1-methyl-4,6-dihydropyrrolo[3,4-c]pyrazol-5(1H)-yl)pyrimidin-4-yl]oxy}piperidine-1-carboxylate (racemic)], for which the negative-log EC50 (pEC50) (one line per run) was 6.74 and 7.11 and 7.07.
For `Cc1c(OC2CCN(C(=O)OC(C)C)CC2)ncnc1N1Cc2cnn(C)c2C1` [Example 2, Isopropyyl 4-{[5-methyl-6-(1-methyl-4,6-dihydropyrrolo[3,4-c]pyrazol-5(1H)-yl)pyrimidin-4-yl]oxy}piperidine-1-carboxylate], under “one line per run”, the negative logarithm of the EC50 (pEC50) is 6.53 and 6.77 and 6.87 and 6.36. Besides, under setting [1], the Emax came to 45%.

The term pEC50 denotes the EC50 on a negative log10 scale, so that one unit is a factor of ten. One may read the EC50 as the concentration that produces a half-maximal response.
